Reference: article PMC3723855, “R31C GNRH1 Mutation and Congenital Hypogonadotropic Hypogonadism” (PLoS ONE, 2013)
“Also recorded” adds a separate entry of the source. Like-named read-outs stand apart in the source and are kept apart here.

Tests used:
human GnRH-R [1] = biological target: T1, human GnRH-R (Homo sapiens, UniProt P30968); test: Competition radioligand binding, 125I-[His5, D-Tyr6]-GnRH, transfected COS-7 cells
T1 sequence (P30968 1-328): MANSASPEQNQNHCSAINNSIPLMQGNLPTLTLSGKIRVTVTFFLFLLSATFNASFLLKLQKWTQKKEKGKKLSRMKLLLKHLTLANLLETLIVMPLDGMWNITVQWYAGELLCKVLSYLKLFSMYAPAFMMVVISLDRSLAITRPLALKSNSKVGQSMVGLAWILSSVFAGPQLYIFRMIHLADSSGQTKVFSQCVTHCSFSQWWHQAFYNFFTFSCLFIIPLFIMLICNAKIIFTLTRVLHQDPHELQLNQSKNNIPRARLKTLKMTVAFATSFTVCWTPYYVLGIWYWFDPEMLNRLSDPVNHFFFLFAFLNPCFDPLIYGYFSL
Method: Figure 2 Binding of WT and R31C GnRH to the GnRH receptor (GnRH-R). […] Data are the means of two experiments performed in triplicate.
The high affinity GnRH analog, [His^5, D-Tyr^6]-GnRH was radio-iodinated as previously described and purified using Sephadex chromatography. COS-7 cells were transiently transfected with a human GnRH-R DNA construct containing the human GnRH-RII carboxy-terminal to enhance expression using 6 µg of DNA and 30 µl FuGene HD (Promega Corporation, Madison, WI) per 10 cm dish and seeded into 12-well plates. […] Cells were washed with phosphate-buffered saline (2×1 ml) and lysed with NaOH (1 ml, 0.1 M). Cell-bound radioactivity was counted in a gamma counter and IC-50 values were calculated using Graphpad Prism (GraphPad Software Inc, San Diego).

human GnRH receptor = test: SRE-coupled luciferase assay in HEK293T cells co-transfected with human GnRH receptor; type: cell-based; settings: for EC50: human GnRH receptor
Method: Figure 3 SRE-coupled luciferase assay. (A) HEK293T cells were exposed to graded concentrations of wild type (WT) GnRH, R31C and equimolar concentrations of WT + R31C during five hours. Luciferase activity arbitrary units by luminometry (a.u.) have been shown as ratio on beta-galactosidase activity by optical density used as transfection efficiency internal control. This experience was conducted eight times. (B) Representation of individual values of EC-50 (calculated with Arcsin “P” root transformation) from n = 8 dose-response experiments.
luc2P/SRE/Hygro plasmid (Promega, Madison, WI) was used to test luciferase production in response to MAP kinase activation as a reporter gene system. HEK293T cells (1.2×10^4 cells/well) were seeded 72 h before testing in high-glucose Dulbecco's minimal essential medium (DMEM, Invitrogen, Cergy Pontoise, France) containing 2 mM glutamine, 100 IU/mL penicillin, […] streptomycin, and 10% heat-inactivated fetal calf serum at 37°C in 96-well plates. Twenty-four hours before testing, cells were co-transfected in serum free OptiMEM, using Lipofectamine 2000 (Invitrogen, Cergy Pontoise, France) with the plasmids for human GnRH receptor, luc2P/SRE/Hygro and pMIR-REPORT™ beta-galactosidase vector (Applied Biosystems, Foster City, CA). […] After 5 h-incubation cells were harvested and assayed for luciferase activities as previously described, using a luminometer (Victor, Perkin Elmer, Waltham, MA). To standardize for transfection efficiency, the relative light units were normalized by the galactosidase activity at optical density. EC-50 and Emax values were calculated using Graphpad Prism (GraphPad Software Inc).

ERK1/2 (LbetaT2 cells) = test: ERK1/2 phosphorylation Western blot in LbetaT2 cells; type: cell-based, murine
Method: Figure 4 ERK1/2 phosphorylation by Western blot. (A) LbetaT2 cells were starved overnight in serum-free DMEM and then treated by 10 nM WT, 10 nM R31C, 10 nM WT +10 nM R31C peptides or vehicle for 0, 5, 10 and 30 minutes. Representative of four experiments. […] Lysates were analyzed by Western Blotting using phospho-ERK1/2 antibodies (Cell Signaling®, open arrow) and mouse monoclonal anti alpha-tubulin (Sigma Aldrich®, St. Louis, MO, close arrow). Similar results on ERK intensity and kinetics were obtained using transiently transfected HEK293T cells.
LbetaT2 cells were starved 18 h in serum-free DMEM before treatments, then exposed to 10 nM of WT, 10 nM of R31C, the combination of 10 nM of each peptide or vehicle. Cells were harvested at 0, 5, 10, 15 and 30 minutes after treatment. Western blotting analyses were performed as previously described.

human GnRH-R [2] = biological target: T1, human GnRH-R; test: Inositol phosphate (IP) accumulation in COS-7 cells transfected with human GnRH-R; type: cell-based; parameters: host or cells: COS-7
Method: Figure 6 IP accumulation. (A) COS-7 cells were transiently transfected with human GnRH-R expression vector and washed before the addition of myo-[2-^3H]Inositol. […] This experience was conducted three times each in triplicate. (B) Representation of individual values of EC-50 (calculated with Arcsin “P” root transformation) from n = 3 dose-response experiments.
COS-7 cells were transiently transfected by electroporation with human GnRH-R DNA (10 µg/15 cm dish), seeded into 12-well plates and radiolabelled by overnight incubation with myo-[3H]Inositol (0.5 µCi/well, American Radiolabeled Chemicals, St Louis, Mo). […] Incubations were stopped by removal of the medium and cells were lysed by addition of formic acid (1 ml, 10 mM). IP were extracted from cell lysates using Dowex 1 X8-200 chromatography and counted using a liquid scintillation counter (Pack ard). EC-50 and Emax values were calculated using Graphpad Prism (GraphPad Software Inc).

GNRHR = test: SRE-coupled luciferase after pulsatile exposure (four 90 min-spaced pulses), HEK293T cells; type: cell-based, human; settings: 5 minutes each, 10 nM WT, 10 nM R31C or 10+10 nM, harvested five hours after last pulse, three experiments, n = 8 replicates
Method: Supplementary file pone.0069616.s002.ppt: Figure S2 Luciferase activity after pulsatile exposure. HEK293T cells were transiently transfected with GNRHR and SRE-coupled luciferase reporter gene, and then exposed to four 90 min-spaced pulses of 10 nM WT, 10 nM […] and 10+10 nM WT+[…]. After 5 minutes exposure to each ligand, cells were washed, and a subsequent pulse was given 90 minutes after. Five hours after the last pulse, cells were harvested for luciferase assay. Luciferase activity arbitrary units obtained by luminometry (a.l.u.) are shown as ratio on beta-galactosidase activity by optical density (used as transfection efficiency internal control). This experience was conducted three times (n = 8 replicates for each experiment). (PPT) Click here for additional data file.

[3] = R31C 10^−10 M to 10^−6 M in combination with WT GnRH at 10^−9 M

Row | IC50 (human GnRH-R [1]; COS-7 transfected with human GnRH-R construct, 125I-[His5, D-Tyr6]-GnRH, 4 h, 4°C, two experiments performed in duplicate) [nM] | impact of added R31C GnRH on receptor binding with WT GnRH (human GnRH-R [1]; [3]) | activity in receptor binding (human GnRH-R [1]; R31C GnRH) | affinity for GnRH-R lower than that of WT GnRH (human GnRH-R [1]; R31C GnRH versus WT GnRH, COS-7 cells) | EC50 (human GnRH-R [2]; COS-7, human GnRH-R, 1 hour, n = 3 dose-response experiments each in triplicate, Arcsin "P" root transformation, spread not defined, read-out: EC-50, IP accumulation (Fig. 6B)) [nM] | impact of added R31C GnRH on IP generation with WT GnRH (human GnRH-R [2]; [3]) | IP activity / potency (human GnRH-R [2]; R31C GnRH versus WT) | less potent than WT GnRH, IP accumulation (human GnRH-R [2]; R31C GnRH versus WT GnRH, p<0.01) [fold] | EC50 (human GnRH receptor; HEK293T, 5 h, p<0.0001 WT vs R31C, read-out: EC-50, SRE-luciferase) [nM] | SMILES | maximal stimulation / agonism, SRE-luciferase (human GnRH receptor; HEK293T, 5 h, R31C compared with WT) | EC50 (human GnRH receptor; HEK293T, 5 h, n = 8 dose-response experiments, Arcsin "P" root transformation, spread not defined, p<0.0001, read-out: EC-50, SRE-luciferase (Fig. 3B)) [nM] | impact of added R31C GnRH on SRE-luciferase with WT GnRH (human GnRH receptor; [3]) | SRE-luciferase activity / potency (human GnRH receptor; R31C GnRH versus WT) | reduction of R31C agonist versus WT, SRE-luciferase (human GnRH receptor; R31C versus WT, dose-response curves) [fold] | ERK1/2 phosphorylation versus WT GnRH (ERK1/2 (LbetaT2 cells); 10 nM, LbetaT2 cells, four experiments) | ERK1/2 phosphorylation versus WT GnRH (ERK1/2 (LbetaT2 cells); 10 nM, LbetaT2 cells, four experiments, listed as R31C peptide) | effect of increasing R31C dose on ERK1/2 phosphorylation by WT GnRH (ERK1/2 (LbetaT2 cells); R31C from 10 nM to 300 nM with 10 nM WT GnRH, 5 minutes exposure) | maximal IP / agonism (human GnRH-R [2]; COS-7, R31C compared with WT) | luciferase activity after pulsatile administration (GNRHR) | time of maximal ERK1/2 phosphorylation (ERK1/2 (LbetaT2 cells); 10 nM, LbetaT2 cells, 0-30 minutes, four experiments) [min]
1 | 850 | failed to have any impact | very low activity | more than 100 fold | 199 ± 75.9 | failed to have any impact | very low activity | > 100 | – | CC(C)C[C@H](NC(=O)CNC(=O)[C@H](Cc1ccc(O)cc1)NC(=O)[C@H](CO)NC(=O)[C@H](Cc1c[nH]c2ccccc12)NC(=O)[C@H](Cc1c[nH]cn1)NC(=O)[C@@H]1CCC(=O)N1)C(=O)N[C@@H](CS)C(=O)N1CCC[C@H]1C(=O)NCC(N)=O [R31C GnRH] | full agonist; also recorded: able to elicit the same maximal stimulation | 313 ± 130 | failed to have any impact | very low activity | ~100 | very low activity | weaker responses | did not reduce ERK1/2 phosphorylation | full agonist; also recorded: maximal IP generated by both ligands was the same; also recorded: able to elicit the same maximal stimulation | – | –
2 | – | – | – | – | – | – | – | – | 4 | CC(C)C[C@H](NC(=O)CNC(=O)[C@H](Cc1ccc(O)cc1)NC(=O)[C@H](CO)NC(=O)[C@H](Cc1c[nH]c2ccccc12)NC(=O)[C@H](Cc1c[nH]cn1)NC(=O)[C@@H]1CCC(=O)N1)C(=O)N[C@@H](CCCNC(=N)N)C(=O)N1CCC[C@H]1C(=O)NCC(N)=O [WT GnRH, reference compound] | – | – | – | – | – | – | – | – | – | more potent than R31C GnRH | 5
